SMILES strings stand for the structures. pIC50: −log10 of the molar value. Read-outs that look alike come from different tables or passages of the source.

In one test the test system is U373-MG glioma cell line. In words: Cellular imaging (quantitative videomicroscopy), global growth ratio, U373. It is filed as cell-based. The following applies: Homo sapiens, 72 h, read-out: Global Grow Ratio Treated/Ct (GGR T/Ct) determined by Video Quantitative microscopy, U373. The text has this: As the MTT test is based on the mitochondria functions, we also investigated the effects of the di- and tri-vanilloyl derivatives according to the invention on cell proliferation, migration and morphology by means of a cellular imaging approach (Debeir et al., Cytometry 60:29-40, 2004; Debeir et al., IEEE Trans Med Imaging 24:697-711, 2005) either in the human U373-MG glioma cell line, which is apoptosis-resistant but autophagy-sensitive (Lefranc F et al., Neurosurgery 2008) and in the human A549 non-small-cell-lung cancer cell line, which is apoptosis-resistant and autophagy-resistant (Mijatovic T et al., Neoplasia 2006, May; 8(5):402-12).
Investigations have also been performed in human normal fibroblasts (WS1 and WI38—see Tables 4 and 5). Cellular imaging relied on the use of computer-assisted phase-contrast microscopy making possible to film the behaviour of living cells in culture dishes for several days.
Cells were seeded in a 25-cm^2 flask at a low density, treated or not with the vanilloyl-esters invention (at a concentration of 50 μM) and filmed thereafter for a period of 72 h. The experiment was conducted in quadruplicates (in duplicates for DLT-95 compounds).
The behaviour of the cells, in terms of morphology, growth and death were thus investigated. The effect on the overall growth was measured by counting the number of cells on the first (0 h) and the last image (72 h) of each film. The global growth ratio (GGR) was then deduced by dividing the number of cells on the last image by the number of cells on the first image. The ratio GGRtreated cells/GGRcontrol cells, was further calculated thereby obtaining a value that describes the effect of compounds of the present invention on the overall cell growth. The methodology is fully described and validated in Debeir et al., 2008, Exp Cell Res 314:2985-2998 and Mathieu et al., 2009, J Cell Mol Med, Feb. 20, 2009.
Illustrative pictures (time=0 h and 72 h) of glioblastoma and normal fibroblast cell line left untreated or treated with poly-vanillic compounds according to the invention (50 μM) are provided in FIG. 1 (U373 glioblastoma) and FIG. 2 (normal fibroblasts). The GGR parameter analyses confirmed the marked impairment of cell growth in both cancer cell lines of the poly-vanillic compounds according to the invention (Table 5).

For the next test, the target named is T1, Aurora B kinase (Homo sapiens, UniProt Q96GD4).
T1 construct: made in house
T1 sequence (Q96GD4 whole entry): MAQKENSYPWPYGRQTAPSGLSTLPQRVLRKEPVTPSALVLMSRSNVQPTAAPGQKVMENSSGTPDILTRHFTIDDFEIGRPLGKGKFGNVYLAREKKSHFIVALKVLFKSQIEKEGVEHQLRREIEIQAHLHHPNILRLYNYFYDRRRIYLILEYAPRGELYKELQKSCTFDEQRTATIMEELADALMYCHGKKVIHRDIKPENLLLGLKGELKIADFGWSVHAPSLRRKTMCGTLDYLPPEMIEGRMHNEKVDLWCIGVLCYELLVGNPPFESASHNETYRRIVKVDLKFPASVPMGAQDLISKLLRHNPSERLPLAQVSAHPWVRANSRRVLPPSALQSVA
In words: Radiometric protein kinase assay (33 PanQinase), Aurora B. The format is biochemical. The note with it: for pIC50: dose-response 0-100 μM, n=3, read-out: IC50: Concentration of drug needed in order to inhibit kinase activity by 50%, AurB; for inhibition at 57 µM: read-out: inhibition of Aurora B activity. Here is the method:
Note that at a concentration of 20 μM of the DLT compounds, the activity of the three Aurora kinases is reduced by approximately 40-50%, whereas at concentrations of 50 μM, i.e. the concentration used in the anti-proliferation assays of example 2B, the activity of said kinases is reduced by 60-75%.
The kinase inhibition profile of DLT95-Cl at 20 μM was determined using 255 protein kinases. Residual activity values were measured by testing each compound at one concentration in duplicate in each kinase assay. A radiometric protein kinase assay (33 PanQinase®Activity Assay) was used for measuring the kinase activity of 250 protein kinases. All kinase assays were performed in 96-well flashPlates™ from Perkin Elmer (Boston, Mass., USA) in a 50 μl reaction volume. The reaction cocktail was pipetted in 4 steps in the following order: • 10 μl of non-radioactive ATP solution (in H2O) • 25 μl of assay buffer/[γ-33P]-ATP mixture • 5 μl of test sample in 10% DMSO • 10 μl of enzyme/substrate mixture
The assay for all enzymes contained 60 mM HEPES-NaOH, pH 7.5, 3 mM MgCl2, 3 mM MnCl2, 3 μM Na-orthovanadate, 1.2 mM DTT, 50 μg/ml PEG20000, 1 μM ATP/[γ-33P]-ATP (approx. […] per well), protein kinase, and substrate. All PKC assays (except the PKC-mu and the PKC-nu assay) additionally contained 1 mM CaCl2, 4 mM EDTA, 5 μg/ml Phosphatidylserine and 1 μg/ml 1,2-Dioleyl-glycerol. The MYLK2, CAMK1D, CAMK2A, CAMK2B, CAMK2D, CAMK4, CAMKK2, DAPK2 and EEF2K assays additionally contained 1 μg/ml Calmodulin and 0.5 mM CaCl2. The PRKG1 and PRKG2 assays additionally contained 1 μM cGMP.
The protein kinases were expressed either in Sf9 insect cells or in E. coli as recombinant GST-fusion proteins or as His-tagged proteins. All kinases were produced from human cDNAs. Kinases were purified by affinity chromatography using either GSH-agarose (Sigma) or Ni-NTH-agarose (Qiagen). The purity of the protein kinases was examined by SDS-PAGE/coomassie staining. The identity of the protein kinases was checked by mass spectroscopy.
The reaction cocktails were incubated at 30° C. for 60 minutes. The reaction was stopped with 50 μl of 2% (v/v) H3PO4, plates were aspirated and washed two times with 200 μl 0.9% (w/v) NaCl. All assays were performed with a BeckmanCoulter Biomek 2000/SL robotic system.
Incorporation of ^33Pi (counting of “cpm”) was determined with a microplate scintillation counter (Microbeta, Wallac).
For each kinase, the median value of the cpm of three wells with complete reaction cocktails, but without kinase, was defined as “low control” […]. This value reflects unspecific binding of radioactivity to the plate in the absence of protein kinase but in the presence of the substrate. Additionally, for each kinase the median value of the cpm of three other wells with the complete reaction cocktail, but without any compound, was taken as the “high control”, i.e. full activity in the absence of any inhibitor […]. The difference between high and low control of was taken as 100% activity for each kinase. As part of the data evaluation the low control value of each kinase was subtracted from the high control value as well as from their corresponding “compound values”. The residual activity (in %) for each compound well was calculated by using the following formula: Res. Activity (%)=100×[(cpm of compound−low control)/(high control−low control)]

For `COc1cc(C(=O)OCCCCCCOC(=O)c2ccc(O)c(OC)c2)ccc1O` [DLT11, Hexane-1,6-diyl bis-(4-hydroxy-3-methoxybenzoate)], the activity at 50 µM with U373-MG glioma cell line (50 μM) was 20%.
As for `COc1cc(C(=O)O)ccc1O` [vanillic acid, reference compound], the pIC50 on Aurora B kinase was < 4.00.
For `O=C(OCc1cc(COC(=O)c2ccc(O)c(Cl)c2)cc(COC(=O)c2ccc(O)c(Cl)c2)c1)c1ccc(O)c(Cl)c1` [DLT95-Cl, [3,5-bis[(4-hydroxy-3-chloro-benzoyl)oxymethyl]phenyl]methyl 4-hydroxy-3-chloro-benzoate], on Aurora B kinase, the pIC50 was 6.05 and the inhibition at 57 µM is ≥ 50%.
For the molecule `COc1cc(C(=O)OCCOC(=O)c2ccc(O)c(OC)c2)ccc1O` [DLT1, Ethane-1,2-diyl bis-(4-hydroxy-3-methoxybenzoate)], the activity at 50 µM in the test with U373-MG glioma cell line (50 μM) came to 30%.
`COc1cc(C(=O)OCc2cc(COC(=O)c3ccc(O)c(OC)c3)cc(COC(=O)c3ccc(O)c(OC)c3)c2)ccc1O` [DLT95, [3,5-bis[(4-hydroxy-3-methoxy-benzoyl)oxymethyl]phenyl]methyl 4-hydroxy-3-methoxy-benzoate]: in the test with U373-MG glioma cell line, the activity at 50 µM stood at 10%. In addition, the pIC50 at Aurora B kinase is 5.47.
As to `O=C(OCc1cc(COC(=O)c2ccc(O)c(F)c2)cc(COC(=O)c2ccc(O)c(F)c2)c1)c1ccc(O)c(F)c1` [DLT95-F, [3,5-bis[(4-hydroxy-3-fluoro-benzoyl)oxymethyl]phenyl]methyl 4-hydroxy-3-fluoro-benzoate], on Aurora B kinase, the pIC50 was 5.62 and the inhibition at 57 µM was ≥ 50%.

A word on the inhibition: it is the share of the control response that was lost under treatment.

These data come from patent US20110280940A1, “Di-Vanilloyl And Tri-Vanilloyl Derivatives For Use In Anti-Cancer Therapy” (priority 2008, published 2011).
